Source: article PMC8214651, “Construction and characterization of a functional chimeric laccase from metagenomes suitable as a biocatalyst” (AMB Express, 2021)

Tested on: T1, Lcc120-3 (Mic-mg-MCO120-3)
T1 construct: 98 residues Micromonospora sp; MP36 MCO N-terminus (parent WP_148798198.1) + 387-residue metagenomic core + 54 residues MP36 MCO C-terminus; MBP deleted; E. coli BL21(DE3)
Test: spectrophotometric oxidation at […] nm, Lineweaver-Burk plot
Type: biochemical
Details: 50 mM potassium phosphate pH 7.0, 30 °C, purified enzyme without MBP; read-out: Lcc120-3 (Mic-mg-MCO) / Km (mM)/Vmax (U/mg protein)/kcat (s^-1)

COc1cccc(OC)c1O [DMP, 2,6-dimethoxyphenol]
Km: 10.5 mM
